Results on eight compounds are retold here after article PMC7465636 (Biomolecules, 2020).

The format of data set [1] is physicochemical. The following applies: in our experimental conditions. An excerpt: The methods used to prepare the 1-aryl-1H-1,2,3-triazoles and 2-aryl-2H-1,2,3-triazoles (54 examples) involved classical chemical transformations, and all evaluated compounds were from the group’s molecular bank and were present in other published works. […] This information can be important for future studies.

The subject of the next data set is P. falciparum 3D7. To be noted: cited from earlier work.
Another data set concerns P. falciparum D10. To be noted: cited from earlier work.
Another data set deals with P. falciparum Dd2. To be noted: cited from earlier work.
Another data set deals with P. falciparum W2. To be noted: cited from earlier work.
The subject of data set [2] is knockout of P. falciparum PfSR25. Also on record: method as in PMID 28842684. The following applies: knockout versus wild type; cited from earlier work.

pIC50: −log10 of the molar value.

For orientation: melting point means the temperature of the solid-liquid transition. On to `COc1ccc(-n2cc(/C=N/Nc3ccc(Br)cc3)nn2)cc1` [Compound 52, (E)-4-((2-(4-bromophenyl)hydrazono)methyl)-1-(4-methoxyphenyl)-1H-1,2,3-triazole], for which the melting point was in the range of 230 to 231 °C. In data set [1], the solubilization entry is “weren’t able to be solubilized”. Turning to `COc1ccc(-n2cc(/C=N/Nc3ccc(F)cc3)nn2)cc1` [Compound 53, (E)-4-((2-(4-fluorophenyl)hydrazono)methyl)-1-(4-methoxyphenyl)-1H-1,2,3-triazole], the melting point is 195 to 197 °C. Also, in data set [1], the solubilization result was “weren’t able to be solubilized”.

The term pIC50 denotes the negative decadic logarithm of the IC50, by convention in mol/L. As to `CCOC(=O)C1CN(Cc2c[nH]nn2)c2cc(Cl)c(F)cc2C1=O` (stereo not shown) [III], the pIC50 in the data set on P. falciparum 3D7 was 5.88.

Turning to `CN(C)C(Cn1cc(-c2ccccc2)nn1)NCc1ccccc1Cl` (stereo not shown) [II], the negative logarithm of the IC50 (pIC50) in the data set on P. falciparum D10 is 4.95; in the data set with P. falciparum Dd2, 4.89.

For `O=C(Cn1cc(CNc2ccnc3cc(Cl)ccc23)nn1)N1CCCCC1` [IV], the pIC50 with P. falciparum D10 is 7.87; in the data set with P. falciparum Dd2 it was 7.36. For the compound `O=[N+]([O-])c1ccc(-n2cc(COc3ccc4cc(Br)ccc4c3)nn2)cc1` [I], the negative-log IC50 (pIC50) in the data set on P. falciparum Dd2 is 4.87; in the data set on P. falciparum 3D7, 4.83. Take `COc1cc([N+](=O)[O-])ccc1-n1cc(COC2=C(CC=C(C)C)C(=O)C=C(C)C2=O)nn1` [V]: the pIC50 in the data set with P. falciparum W2 is 5.39. With `Clc1ccc2c(N3CCN(CCCN4CCN(c5ccnc6cc(Cl)ccc56)CC4)CC3)ccnc2c1` [piperaquine], in data set [2], the “susceptibility of PfSR25 knockout parasite to the drug” value is “more susceptible”.
